{"source": "patent US20130143886A1", "about": "“METHODS FOR PRESERVING AND/OR INCREASING RENAL FUNCTION USING XANTHINE OXIDOREDUCTASE INHIBITORS” (priority 2006, published 2013)", "assay_type_in_all_cases": "in vivo, Male Wistar rats", "key": {"remnant kidney (RK) rats [1]": {"test_system": "remnant kidney (RK) rats", "test": "Body weight, food and water intake in remnant kidney rats", "conditions": "RK rats (RK + Fx or RK + OA group)", "experimental": "Male Wistar rats (295-340 g) were used to produce rats with remnant kidney (RK) as follows. […] Rats were then assigned to one of four treatment groups: Group 1, RK control rats (n=7); Group 2, RK+febuxostat (Fx) rats (n=8); Group 3, RK+oxonic acid (OA) rats (n=6); and Group 4, RK+OA+Fx (n=10). Oxonic acid (OA) (Sigma-Aldrich, St Louis Mo., USA), administered at 750 mg/kg body weight daily by oral gavage, was given starting the day after the ⅚ nephrectomy. Beginning immediately following the surgery, febuxostat was administered in drinking water at 30 mg/L (3-4 mg/kg/day), whereas the respective controls received only drinking water (with 3.5 mg/L of NaCl added to keep an equivalent salt concentration to the Fx-containing water). All groups were treated for four weeks. Body weight (beginning just before surgery) and food and water intakes were measured daily. Systolic blood pressure, measured in conscious rats by a tail cuff sphygmomanometer, and plasma uric acid (UA) levels were measured at just before surgery (namely, at baseline) and at the end of the four weeks. Proteinuria was measured at baseline and at the end of two and four weeks. A renal micropuncture procedure along with systemic blood pressure monitoring under pentobarbital anesthesia was performed at the end of four weeks followed by morphologic evaluation of the renal preglomerular microvasculature. Food and water intake were determined daily. Systolic blood pressure (SBP) was measured by a tail-cuff sphygmomanometer using an automated system (XBP-100; Kent Scientific Co, Torrington, Conn., USA) in conscious animals. All animals were preconditioned for blood pressure measurements one week before each experiment. Plasma uric acid was quantified using a commercial kit (Diagnostic Chemicals Ltd, Charlottetown, PEI, Canada). Proteinuria was determined by turbidimetry by the method of trichloroacetic acid as described in Henry R J et al., “Turbidimetric determination of proteins with sulfosalicylic and tricholoroacetic acids”, Proc Soc Exp Biol Med 92:748-751 (1956), the contents of which are herein incorporated by reference."}, "remnant kidney (RK) rats [2]": {"test_system": "remnant kidney (RK) rats", "test": "Plasma uric acid in remnant kidney rats", "conditions": "RK+OA rats, end of four weeks", "experimental": "Male Wistar rats (295-340 g) were used to produce rats with remnant kidney (RK) as follows. […] Rats were then assigned to one of four treatment groups: Group 1, RK control rats (n=7); Group 2, RK+febuxostat (Fx) rats (n=8); Group 3, RK+oxonic acid (OA) rats (n=6); and Group 4, RK+OA+Fx (n=10). Oxonic acid (OA) (Sigma-Aldrich, St Louis Mo., USA), administered at 750 mg/kg body weight daily by oral gavage, was given starting the day after the ⅚ nephrectomy. Beginning immediately following the surgery, febuxostat was administered in drinking water at 30 mg/L (3-4 mg/kg/day), whereas the respective controls received only drinking water (with 3.5 mg/L of NaCl added to keep an equivalent salt concentration to the Fx-containing water). All groups were treated for four weeks. Body weight (beginning just before surgery) and food and water intakes were measured daily. Systolic blood pressure, measured in conscious rats by a tail cuff sphygmomanometer, and plasma uric acid (UA) levels were measured at just before surgery (namely, at baseline) and at the end of the four weeks. Proteinuria was measured at baseline and at the end of two and four weeks. A renal micropuncture procedure along with systemic blood pressure monitoring under pentobarbital anesthesia was performed at the end of four weeks followed by morphologic evaluation of the renal preglomerular microvasculature. Food and water intake were determined daily. Systolic blood pressure (SBP) was measured by a tail-cuff sphygmomanometer using an automated system (XBP-100; Kent Scientific Co, Torrington, Conn., USA) in conscious animals. […] Plasma uric acid was quantified using a commercial kit (Diagnostic Chemicals Ltd, Charlottetown, PEI, Canada). Proteinuria was determined by turbidimetry by the method of trichloroacetic acid as described in Henry R J et al., “Turbidimetric determination of proteins with sulfosalicylic and tricholoroacetic acids”, Proc Soc Exp Biol Med 92:748-751 (1956), the contents of which are herein incorporated by reference."}, "remnant kidney (RK) rats [3]": {"test_system": "remnant kidney (RK) rats", "test": "Micropuncture procedure to assess glomerular hemodynamics", "experimental": "Male Wistar rats (295-340 g) were used to produce rats with remnant kidney (RK) as follows. […] Rats were then assigned to one of four treatment groups: Group 1, RK control rats (n=7); Group 2, RK+febuxostat (Fx) rats (n=8); […] Oxonic acid (OA) (Sigma-Aldrich, St Louis Mo., USA), administered at 750 mg/kg body weight daily by oral gavage, was given starting the day after the 5⁄6 nephrectomy. […] All groups were treated for four weeks. Body weight (beginning just before surgery) and food and water intakes were measured daily. Systolic blood pressure, measured in conscious rats by a tail cuff sphygmomanometer, and plasma uric acid (UA) levels were measured at just before surgery (namely, at baseline) and at the end of the four weeks. Proteinuria was measured at baseline and at the end of two and four weeks. A renal micropuncture procedure along with systemic blood pressure monitoring under pentobarbital anesthesia was performed at the end of four weeks followed by morphologic evaluation of the renal preglomerular microvasculature. Animals were anesthetized with pentobarbital sodium (30 mg/kg, intraperitoneal (ip)) and placed on a thermoregulated table to maintain body temperature at 37° C. Trachea, jugular veins, femoral arteries and the left ureter were catheterized with polyethylene tubing (PE-240, PE-50, and PE-10). The left kidney was exposed, placed in a Lucite holder, sealed with agar, and covered with Ringer's solution. Mean arterial pressure (MAP) was monitored with a pressure transducer (Model p23 db; Gould, San Juan, Puerto Rico) connected to the catheter in the femoral artery and recorded on a polygraph (Grass Instruments, Quincy, Mass., USA). Blood samples were taken periodically and replaced with blood from a donor rat. Rats were maintained under euvolemic conditions by infusion of 10 mL/kg of body weight of isotonic rat plasma during surgery, followed by an infusion of 25%, polyfructosan, at 2.2 ml/h (Inutest; Fresenius Kabi, Linz, Austria). After 60 minutes, five to seven samples of proximal tubular fluid were obtained to determine flow rate and polyfructosan concentrations. Intratubular pressure under free-flow (FF) and stop-flow (SFP) conditions and peritubular capillary pressure (Pc) were measured in other proximal tubules with a servo-null device (Servo Nulling Pressure System; Instrumentation for Physiology and Medicine, San Diego, Calif., USA). Glomerular colloid osmotic pressure was estimated from protein concentrations obtained from blood of the femoral artery (Ca) and surface efferent arterioles (Ce). Polyfructosan was measured in plasma and urine samples by the anthrone-based technique described by Davidson and […] in “Simplification of the anthrone method for the determination of inulin in clearance studies,” J Lab Clin Med. 62:351-356 (1963), the contents of which are herein incorporated by reference. In brief, plasma samples were deproteinated first with trichloroacetic acid. After centrifugation, the supernatant was used for polyfructosan measurement. Polyfructosan concentrations in plasma and urine samples were assessed by the addition of anthrone reagent followed by incubation at 45° C. for 50 minutes and reading in a spectrophotometer set at wavelength of 620 nm. […] Total GFR was calculated using the following formula: GFR=(U×V)/P, where U is the polyfructosan concentration in urine, V is urine flow rate, and P is the polyfructosan concentration in plasma. The volume of fluid collected from individual proximal tubules was estimated from the length of the fluid column in a constant-bore capillary tube of known internal diameter. The concentration of tubular polyfructosan was measured by the microfluorometric method described by Vurek and Pegram in “Fluorometric method for the determination of nanogram quantities of inulin,” Anal Biochem 16:409-419 (1966), the contents of which are herein incorporated by reference. […]"}, "remnant kidney (RK) rats [4]": {"test_system": "remnant kidney (RK) rats", "test": "Renal arteriolar morphology", "conditions": "RK rats vs RK control group", "experimental": "Male Wistar rats (295-340 g) were used to produce rats with remnant kidney (RK) as follows. […] Rats were then assigned to one of four treatment groups: Group 1, RK control rats (n=7); Group 2, RK+febuxostat (Fx) rats (n=8); Group 3, RK+oxonic acid (OA) rats (n=6); and Group 4, RK+OA+Fx (n=10). Oxonic acid (OA) (Sigma-Aldrich, St Louis Mo., USA), administered at 750 mg/kg body weight daily by oral gavage, was given starting the day after the 5⁄6 nephrectomy. Beginning immediately following the surgery, febuxostat was administered in drinking water at 30 mg/L (3-4 mg/kg/day), whereas the respective controls received only drinking water (with 3.5 mg/L of NaCl added to keep an equivalent salt concentration to the Fx-containing water). After the micropuncture study, kidneys were washed by perfusion with phosphate-buffered saline and then fixed with 4% paraformaldehyde. Renal biopsies were embedded in paraffin. Sections of 4-μm thick fixed tissue were stained with periodic acid Schiff (PAS) reagent and Masson's trichrome staining. Arteriolar morphology was assessed by indirect peroxidase immunostaining for alpha-smooth muscle actin (DAKO Corp, Carpinteria, Calif., USA). Renal sections incubated with normal rabbit serum were used as negative controls for immunostaining against alpha smooth-muscle actin. For each arteriole, the outline of the vessel and its internal lumen (excluding the endothelium) were generated using computer analysis to calculate the total medial area (outline inline), in 10 arterioles per biopsy. The media/lumen ratio was calculated by the outline/inline relationship (See, Sanchez-Lozada L G et al., “Mild hyperuricemia induces glomerular hypertension in normal rats”, Am J Physiol Renal Physiol 283:[…]-[…] (2002); Sanchez-Lozada L G, et al., “Mild hyperuricemia induces vasoconstriction and maintains glomerular hypertension in normal and remnant kidney rats,” Kidney Int 67:237-247 (2005), the contents of each are herein incorporated by reference). Quantifications were performed blinded."}, "[5]": {"conditions": "RK rats (RK + Fx or RK + OA group), end of four weeks"}}}
{"compound": "O=C(O)c1nc(=O)[nH]c(=O)[nH]1", "note": "[OA, oxonic acid, reference compound]", "values": [{"measurement": "BW", "setting": "remnant kidney (RK) rats [1]; End of Week 4", "value": "328.5 ± 6.6", "unit": "g"}, {"measurement": "BW Gain (from baseline)", "setting": "remnant kidney (RK) rats [1]; End of Week 4", "value": "5.5 ± 10.3", "unit": "g"}, {"measurement": "Daily Food Intake", "setting": "remnant kidney (RK) rats [1]; Week 1", "value": "14.2 ± 2.1", "unit": "g"}, {"measurement": "Daily Water Intake", "setting": "remnant kidney (RK) rats [1]; Week 1", "value": "44.3 ± 3.5", "unit": "mL"}, {"measurement": "Daily Food Intake", "setting": "remnant kidney (RK) rats [1]; Week 2", "value": "19.7 ± 0.7", "unit": "g"}, {"measurement": "Daily Water Intake", "setting": "remnant kidney (RK) rats [1]; Week 2", "value": "58.6 ± 1.4", "unit": "mL"}, {"measurement": "Daily Food Intake", "setting": "remnant kidney (RK) rats [1]; Week 3", "value": "21.3 ± 1.0", "unit": "g"}, {"measurement": "Daily Water Intake", "setting": "remnant kidney (RK) rats [1]; Week 3", "value": "57.2 ± 2.6", "unit": "mL"}, {"measurement": "Daily Food Intake", "setting": "remnant kidney (RK) rats [1]; Week 4", "value": "20.7 ± 0.9", "unit": "g"}, {"measurement": "Daily Water Intake", "setting": "remnant kidney (RK) rats [1]; Week 4", "value": "48.6 ± 3.0", "unit": "mL"}, {"measurement": "Plasma uric acid relative to the RK control rats (in words)", "setting": "remnant kidney (RK) rats [2]", "value": "increased significantly by over two-fold"}, {"measurement": "GFR", "setting": "remnant kidney (RK) rats [3]; [5]", "value": "0.29 ± 0.06", "unit": "mL/min"}, {"measurement": "Kf", "setting": "remnant kidney (RK) rats [3]; [5]", "value": "0.027 ± 0.003", "unit": "nL/s · mmHg"}, {"measurement": "PGC", "setting": "remnant kidney (RK) rats [3]; [5]", "value": "64.4 ± 1.1", "unit": "mmHg"}, {"measurement": "QA", "setting": "remnant kidney (RK) rats [3]; [5]", "value": "170 ± 16", "unit": "nL/min"}, {"measurement": "SNGFR", "setting": "remnant kidney (RK) rats [3]; [5]", "value": "51.3 ± 4.8", "unit": "nL/min"}, {"measurement": "MAP", "setting": "remnant kidney (RK) rats [3]; RK rats (RK + Fx or RK + OA group), end of four weeks, under anesthesia", "value": "198 ± 10", "unit": "mmHg"}, {"measurement": "Glomerular plasma flow (in words)", "setting": "remnant kidney (RK) rats [3]; RK+OA group", "value": "significant decrease"}, {"measurement": "GFR (in words)", "setting": "remnant kidney (RK) rats [3]; RK+OA rats vs RK control group", "value": "similarly low as in the RK control group"}, {"measurement": "Single-nephron GFR (in words)", "setting": "remnant kidney (RK) rats [3]; RK+OA rats vs RK control group", "value": "lower compared to the RK control group"}, {"measurement": "Afferent resistance (in words)", "setting": "remnant kidney (RK) rats [3]; RK+OA rats vs RK control rats", "value": "significantly elevated"}, {"measurement": "Thickening of preglomerular vessels / afferent arteriole (in words)", "setting": "remnant kidney (RK) rats [4]", "value": "developed additional thickening of the afferent arteriole"}]}
